# Results published in PMC12267714 (Nature Communications, 2025).
# Structures can show the parent of a compound that is named as a salt.
# Details: mouse, in vivo, 20 mg/kg
structure (smiles),measurement,value
CN(C)C(=O)COC(=O)Cc1ccc(OC(=O)c2ccc(NC(=N)N)cc2)cc1 [camostat mesylate],level in the plasma after oral delivery,no detectable level
